Data set [1] deals with human breast cancer MCF-7. The data set can be described thus: Growth inhibition of human breast cancer MCF-7 xenografted in nude mice. It counts as in vivo, BALB/c female nude mice. The settings on record: oiling agent, 100 mg/kg s.c. once, 28 days after administration; for Tumor weight: X ± SD; for Tumor inhibition rate: from tumor weight vs control. An excerpt: Test drugs: fulvestrant, Compounds II and X are dispersed in oil and sterilized to be prepared as oiling agents respectively.
A general note: A xenograft is tissue or cells of one species grown in another, often human tumour cells in immunodeficient mice.

The next data set can be described thus: physchem. The settings on record: thermodynamic from solid.
The conditions of data set [2]: cited from earlier work.
Data set [3] in a line: Body weight of MCF-7 xenografted nude mice. As to conditions: oiling agent, 100 mg/kg s.c. once, 28 days after administration, X ± SD.
Protocol: Experimental animals and grouping thereof, source, germline and strain: BALB/c female nude mice, provided by Laboratory Animal Research Center of Academy of Military Medical Sciences of China (Laboratory animal production license: SCXK (Military) 2007-004), day-old: 35-40 days; body weight: 18-24 g.
Establishment of model and tumor measuring method: human breast cancer MCF-7 cell lines in logarithmic growth phase were prepared into a cell suspension of 5×10^8/mL under sterile condition, with 0.1 mL of which being inoculated to nude mice at their right armpits subcutaneously. Xenografted tumors of nude mice were measured for diameter with vernier caliper, and animals were randomly grouped when the tumors grew to 100-300 mm^3. The administration volume to each of the mice was 0.2 mL/20 g by subcutaneous injection at head and neck region. 28 days after administration, the mice were sacrificed and the tumors were stripped by surgery and weighed.
A short description of data set [4]: Solubility experiments of fulvestrant and ester derivatives in different oils and solvents. As to conditions: thermodynamic from solid.
Description: (§1) Fulvestrant and ester derivatives of fulvestrant were accurately weighed to an appropriate amount respectively. Their solubilities (in mg/mL) in different oils and solvents were compared according to General Notice in Section 2 of Chinese Pharmacopoeia (2010).
The mark [5] stands for this setting: oil or lipid, Solubility in soybean oil.
[6] abbreviates: organic solvent or mixture, Solubility in propylene glycol.

The text below walks through data of US20160060288A1, “Ester derivatives of 7-alpha-[9-(4,4,5,5,5-pentafluoropentylsulfinyl)nonyl)-estra-1,3,5(10)-triene-3,17beta-diol having anticancer activity and preparation method thereof” (XI'ANLIBANG PHARMACEUTICAL TECHNOLOGY CO., LTD., priority 2013, published 2016).

Converted amounts (≈) assume the structure as drawn.

Description for physchem: as §1

In data set [1], `CCCCCCCCCCCCCCCC(=O)OC1CCC2C3C(CCCCCCCCC[S+]([O-])CCCC(F)(F)C(F)(F)F)Cc4cc(O)ccc4C3CCC12C` (centres unmarked) [Compound II] came in with a Tumor weight of 0.426 ± 0.306 g. The compound also yielded a Tumor inhibition rate in data set [1] of 64.90%. In addition, the solubility in “physchem” (oil or lipid, Solubility in castor oil) was above 100000 µg/mL; in “physchem” (oil or lipid, Solubility in medium-chain oil) it was above 10000 µg/mL; in the data set “physchem” (setting [5]), above 100000 µg/mL; in the data set “physchem” (organic solvent or mixture, Solubility in PEG 400) it was 2900 µg/mL (≈ 3.43 mM); in “physchem” (setting [6]), 10200 µg/mL (≈ 12.1 mM).

For the compound `CC(CCC(C(=O)OC1CCC2C3C(CCCCCCCCC[S+]([O-])CCCC(F)(F)C(F)(F)F)Cc4cc(O)ccc4C3CCC12C)C(C)CC(C)(C)C)CC(C)(C)C` (centres unmarked) [Compound IV], the solubility turned out to be 28000 µg/mL (≈ 32.1 mM) in the data set “physchem” (setting [5]) and 7100 µg/mL (≈ 8.13 mM) in the data set “physchem” (setting [6]).

Take `CCCCCCCCCCC(=O)OC1CCC2C3C(CCCCCCCCC[S+]([O-])CCCC(F)(F)C(F)(F)F)Cc4cc(O)ccc4C3CCC12C` (centres unmarked) [Compound I]: the solubility in the data set “physchem” (setting [5]) was determined as 255000 µg/mL (≈ 329 mM); in the data set “physchem” (setting [6]), 2900 µg/mL (≈ 3.74 mM).

Consider `CCCCCCCC/C=C/C(=O)OC1CCC2C3C(CCCCCCCCC[S+]([O-])CCCC(F)(F)C(F)(F)F)Cc4cc(O)ccc4C3CCC12C` (centres unmarked) [Compound V], for which the solubility in “physchem” (setting [5]) came out at 122000 µg/mL (≈ 158 mM); in the data set “physchem” (setting [6]), 12200 µg/mL (≈ 15.8 mM).

In data set [1], `CCCCCCCC/C=C/C(=O)OC1CCC2C3C(CCCCCCCCC[S+]([O-])CCCC(F)(F)C(F)(F)F)Cc4cc(OC(=O)CCC)ccc4C3CCC12C` (centres unmarked) [Compound X] came in with a Tumor weight of 0.402 ± 0.711 g and a Tumor inhibition rate of 65.93%.

For `CC12CCC3c4ccc(O)cc4CC(CCCCCCCCC[S+]([O-])CCCC(F)(F)C(F)(F)F)C3C1CCC2O` (stereo not drawn) [Fulvestrant, 7-α-[9-(4,4,5,5,5-pentafluoropentylsulfinyl)nonyl]-estra-1,3,5(10)-triene-3,17β-diol], the Tumor weight in data set [1] came to 0.392 ± 0.443 g. In data set [1], the Tumor inhibition rate worked out at 66.78%. Further, the “Solubility in Migloyl 810” value in data set [2] (Migloyl 810, 25° C.) is 3060 µg/mL (≈ 5.04 mM). In addition, the “Solubility in Migloyl 812” value in data set [2] (Migloyl 812, 25° C.) is 2720 µg/mL (≈ 4.48 mM). The “Solubility in Span 85” value in data set [2] (Span 85, 25° C.) is 3790 µg/mL (≈ 6.25 mM). For the same compound, the “Solubility in benzyl alcohol” value in data set [2] (benzyl alcohol, 25° C.) was above 200000 µg/mL. Besides, the “Solubility in benzyl benzoate” value in data set [2] (benzyl benzoate, 25° C.) is 6150 µg/mL (≈ 10.1 mM). The “Solubility in castor oil” value in data set [2] (castor oil, 25° C.) is 20000 µg/mL (≈ 33 mM). Further, in data set [2] (castor oil, * denotes reported value), the “Solubility in castor oil (reported value)” value was 20* mg/mL. In addition, the Solubility in ethanol in data set [2] (ethanol, 25° C.) was above 200000 µg/mL. Besides, the “Solubility in ethyl oleate” value in data set [2] (ethyl oleate, 25° C.) is 1250 µg/mL (≈ 2.06 mM). In addition, the “Solubility in isopropyl myristate” value in data set [2] (isopropyl myristate, 25° C.) is 800 µg/mL (≈ 1.32 mM). In data set [2] (peanut oil, 25° C.), the “Solubility in peanut oil” value is 450 µg/mL (≈ 0.742 mM). Also, in data set [2] (sesame oil, 25° C.), the “Solubility in sesame oil” value is 580 µg/mL (≈ 0.956 mM). In addition, the Solubility in water in data set [2] (water, 25° C.) was 1 µg/mL (≈ 0.00165 mM). For the same compound, in data set [2] (water), the Water solubility entry is listed as “about 10 ng/mL”. Also, in data set [3], the Final body weight came to 15.800 ± 1.166 g. In addition, the solubility came out at 6900 µg/mL (≈ 11.4 mM) in data set [4] (PEG 400, organic solvent or mixture, Solubility in PEG 400, PEG 400); 10200 µg/mL (≈ 16.8 mM) in data set [4] (propylene glycol, organic solvent or mixture, Solubility in propylene glycol); 5000 µg/mL (≈ 8.24 mM) in data set [4] (soybean oil, oil or lipid, Solubility in soybean oil).

Broadly, the solubility is how much of the substance goes into solution per volume.
